Source: PMC3958853, “Characterization and Antioxidant Properties of Six Algerian Propolis Extracts: Ethyl Acetate Extracts Inhibit Myeloperoxidase Activity” (International Journal of Molecular Sciences, 2014)
Several values for one entry are separate records, joined by “and”; a condition that tells them apart may be missing. Equal values may be shown once.

molecular target: T1, recombinant MPO (Homo sapiens, UniProt P05164); test: not given; settings: stated among literature reports, no reference given; cited from earlier work
T1 construct: made in house
T1 sequence (P05164 49-745): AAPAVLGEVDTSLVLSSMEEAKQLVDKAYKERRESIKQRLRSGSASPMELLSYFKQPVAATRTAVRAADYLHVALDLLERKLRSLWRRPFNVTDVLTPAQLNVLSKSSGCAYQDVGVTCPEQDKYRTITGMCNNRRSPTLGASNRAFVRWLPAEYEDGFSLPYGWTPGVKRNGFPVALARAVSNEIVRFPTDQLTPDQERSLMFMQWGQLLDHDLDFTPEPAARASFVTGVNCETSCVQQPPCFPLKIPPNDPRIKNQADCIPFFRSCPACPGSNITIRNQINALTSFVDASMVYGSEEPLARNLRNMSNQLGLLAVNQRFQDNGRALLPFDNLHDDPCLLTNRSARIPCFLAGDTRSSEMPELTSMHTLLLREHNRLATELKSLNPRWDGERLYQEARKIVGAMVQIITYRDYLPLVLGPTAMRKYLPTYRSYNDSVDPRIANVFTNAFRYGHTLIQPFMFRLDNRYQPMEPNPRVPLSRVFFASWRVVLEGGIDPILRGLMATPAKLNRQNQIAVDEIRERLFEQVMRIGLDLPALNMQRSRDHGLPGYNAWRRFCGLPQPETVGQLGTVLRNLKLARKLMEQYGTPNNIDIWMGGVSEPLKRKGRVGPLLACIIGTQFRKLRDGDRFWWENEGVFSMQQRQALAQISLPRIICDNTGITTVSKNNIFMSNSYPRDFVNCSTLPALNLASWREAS

For `O=c1c(O)c(-c2ccc(O)c(O)c2)oc2cc(O)cc(O)c12` [Quercetin], the IC50 is given as roughly 5 µM.

molecular target: T1, recombinant MPO; test: Myeloperoxidase inhibition assay (taurine chloramine); format: biochemical; settings: pure compounds, read-out: IC50 (μM) ± SD for MPO
Experimental: The recombinant MPO was produced as previously described Moguilevsky et al. and each batch solution was characterized by its protein concentration (mg/mL), its activity (U/mL), and its specific activity (U/mg). The chlorination activity was determined according to Hewson and Hager, (1979). Human plasma served for the isolation of LDL by ultracentrifugation according to Havel et al. (1955). Before oxidation, the LDL fraction (1.019 < d < 1.067 g/mL) was desalted by two consecutive passages through PD10 gel-filtration columns (Amersham Biosciences, Hoevelaken, The Netherlands) using PBS buffer. The different steps were carried out in the dark, and the protein concentration was measured by the Lowry assay for both MPO and LDL [57].
The assay was based on the production of taurine chloramine by the MPO/H2O2/Cl^− system which can be determined by means of 5-thio-2-nitrobenzoic acid (TNB) in the presence of a selected inhibitor at defined concentration. The reaction mixture contained the following reagents in a final volume of 200 μL:pH 7.4 phosphate buffer (10 mM PO4^3−/300 mM NaCl), taurine (15 mM), extraction solutions of propolis, and the fixed amount of the recombinant MPO (6 μL of MPO batch solution diluted 2.5 times, 40 nM). When necessary, the volume was adjusted with water. This mixture was incubated at 37 °C and the reaction initiated with 10.0 μL of H2O2 (100 μM). After 5 min, the reaction was stopped by the addition of 10 μL of catalase (8 U/μL). To determine the amount of taurine chloramines produced, 50 μL of 1.35 mM solution of TNB were added and the volume adjusted to 300 μL with water. Then, the absorbance of the solutions was measured at 412 nm with a microplate reader and the curve of the absorbance as a function of the inhibitor concentration was plotted. To remove the influence of HOCl scavenging carried out by the extracts, the same procedure of MPO inhibition assay was done but with addition of 6 μL of HOCl (60 μM) instead of the solution of MPO and H2O2.

`COc1ccc(-c2cc(=O)c3c(O)cc(O)cc3o2)cc1` [Acacetin] and `O=c1cc(-c2ccccc2)oc2cc(O)cc(O)c12` [Chrysin] are within error of each other in IC50: 9 ± 2 µM for the first, 8 ± 2 µM for the second.

Going from `O=C(O)/C=C/c1ccc(O)c(O)c1` [Caffeic acid] to `COc1cc(/C=C/C(=O)O)ccc1O` [Ferulic acid], the IC50 falls from greater than 10 µM to 6 ± 3 µM. The second is the more potent here.

First: O=C(O)/C=C/c1ccccc1 [Cinnamic acid]
Second: O=c1c(O)c(-c2ccccc2)oc2cc(O)cc(O)c12 [Galangin]
The IC50 of the first is lower: 9 ± 4 µM for the first, greater than 10 µM for the second.

`O=c1c(-c2ccc(O)cc2)coc2cc(O)cc(O)c12` [Genistein] and `CC(C)c1c(O)ccc2c1CC[C@H]1C(C)(C)CCC[C@]21C` [Totarol] cannot be ordered by IC50: greater than 10 µM for the first, greater than 10 µM for the second.

For `O=c1c(O)c(-c2ccc(O)cc2)oc2cc(O)cc(O)c12` [Kaempferol], the IC50 was 4.1 µM and 4 µM.
